Some test systems named below: A549; ACHN; HL-60; HOP-92; Hs-578T; KM12; Malme-3M; NCI-H226; NCI-H522; OVCAR-3; OVCAR-5; SF-268; SK-MEL-28; SK-MEL-5; SK-OV-3; SR; T47D; U-251; UO-31; A498.
Assay in all cases: inhibition of tumour cell growth, NCI panel, 48 h

Each structure is given as a SMILES string.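 96-well plates; 48 h exposure; 5 concentrations. Endpoints by linear interpolation between flanking doses. Not reached: highest tested concentration assigned. GI50 is the concentration that inhibits growth by half.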 The source made the active and inactive calls. Cut-off read from the data, not from the text of the source: active = GI50 up to about 1.1 µM and inactive = higher. Some results are limits rather than exact numbers.

For the compound `ClC1=C(Cc2ccccc2)Cc2ccc3c(c21)CCC3`, the GI50 was 33.6 µM (inactive) in the assay with A549; 29.9 µM (inactive) in the assay with ACHN; 19.7 µM (inactive) in the assay on HL-60; 99.8 µM (inactive) in the assay with HOP-92; 23.2 µM (inactive) with Hs-578T; 18.3 µM (inactive) in the assay on KM12. Further, the GI50 in the assay with Malme-3M was 24.2 µM (inactive); with NCI-H226 it was 23 µM (inactive); in the assay on NCI-H522, 17.7 µM (inactive); in the assay with OVCAR-3, 36.4 µM (inactive); in the assay on OVCAR-5, 61.2 µM (inactive); in the assay with SF-268, 33.2 µM (inactive). Besides, the GI50 was 66.5 µM (inactive) with SK-MEL-28; 20.8 µM (inactive) with SK-MEL-5; 83.6 µM (inactive) in the assay with SK-OV-3; 18.3 µM (inactive) in the assay with SR; 18.5 µM (inactive) in the assay on T47D; 19.1 µM (inactive) with U-251. Moreover, the GI50 in the assay with UO-31 is 21.8 µM (inactive).
Consider `C=CCCCC1CCCNC1=S` (stereo unspecified), for which the GI50 with A498, with A549, with ACHN, in the assay with HOP-92, in the assay with Hs-578T and with KM12 was > 100 µM (inactive) throughout. The GI50 in the assay with NCI-H226, in the assay on NCI-H522, in the assay on OVCAR-3, with OVCAR-5, in the assay with SF-268 and in the assay with SK-MEL-28 was > 100 µM (inactive) throughout. Besides, the GI50 in the assay with SK-MEL-5, in the assay on SK-OV-3, in the assay with T47D, in the assay with U-251 and in the assay on UO-31 was > 100 µM (inactive) throughout.
On to `c1ccc2c(c1)ncn2CCn1ccnc1`, for which the GI50 with A498, in the assay on A549, in the assay on ACHN, with HL-60, in the assay on Hs-578T and with KM12 was > 100 µM (inactive) each time. For the same compound, the GI50 with Malme-3M, in the assay on NCI-H226, with NCI-H522, with OVCAR-3, with OVCAR-5 and in the assay on SF-268 was > 100 µM (inactive) in each case. In addition, the GI50 in the assay with SK-MEL-28, in the assay with SK-MEL-5, in the assay on SK-OV-3, in the assay with T47D, in the assay with U-251 and with UO-31 was > 100 µM (inactive) in each case.
On to `O=C(CC(=O)N1N=C(N2CCCCC2)CC1c1ccccc1)Nc1ccc(Cl)cc1` (stereo unspecified), for which the GI50 in the assay with A498, in the assay with A549, with ACHN, in the assay on HL-60, with HOP-92 and in the assay with Hs-578T was > 100 µM (inactive) each time. Besides, the GI50 in the assay on KM12, in the assay with Malme-3M, in the assay on NCI-H226, in the assay on NCI-H522, in the assay with OVCAR-3 and with OVCAR-5 was > 100 µM (inactive) throughout. For the same compound, the GI50 in the assay with SF-268, in the assay on SK-MEL-28, with SK-MEL-5, with T47D, in the assay on U-251 and in the assay with UO-31 was > 100 µM (inactive) throughout.
`COc1cc([C@@]23OC[C@@H]4[C@@H](OC[C@@H]42)c2cc4c(cc23)OCO4)cc(OC)c1OC`: the GI50 in the assay with A498 was < 0.01 µM (active); in the assay with A549 it was < 0.01 µM (active); in the assay on ACHN, < 0.0127 µM (active); in the assay with HL-60, < 0.01 µM (active); in the assay with Hs-578T it was < 0.01 µM (active); with KM12, < 0.01 µM (active). The GI50 in the assay on Malme-3M is 0.0838 µM (active); in the assay on NCI-H226 it was < 0.01 µM (active); in the assay on NCI-H522, < 0.01 µM (active); in the assay on OVCAR-3, < 0.01 µM (active); in the assay on OVCAR-5, > 48.2 µM (inactive); in the assay with SF-268, 0.0851 µM (active). Besides, the GI50 in the assay with SK-MEL-28 was 23.5 µM (inactive); with SK-MEL-5, < 0.01 µM (active); in the assay with SK-OV-3, < 0.01 µM (active); with SR, < 0.01 µM (active); with T47D, 50.8 µM (inactive); with U-251, < 0.01 µM (active). In addition, the GI50 in the assay with UO-31 is < 0.01 µM (active).
Consider `Cc1cc(O)c(C(C)C)cc1C(=S)Nc1ccc(Cl)cc1`, for which the GI50 in the assay on A498 is 15.1 µM (inactive); in the assay with ACHN it was 13 µM (inactive); in the assay on HL-60 it was 7.05 µM (inactive); in the assay with Hs-578T, 9.1 µM (inactive); in the assay on KM12, 10.1 µM (inactive); with Malme-3M, 7.52 µM (inactive). Moreover, the GI50 in the assay on NCI-H522 is 5.61 µM (inactive); with OVCAR-3 it was 14.7 µM (inactive); in the assay with OVCAR-5 it was 15 µM (inactive); with SF-268 it was 7 µM (inactive); in the assay on SK-MEL-28, 13.9 µM (inactive); in the assay with SK-MEL-5, 11.5 µM (inactive). The GI50 in the assay with SK-OV-3 was 21.9 µM (inactive); with SR, 4.95 µM (inactive); with T47D, 11.6 µM (inactive); with U-251 it was 14.7 µM (inactive).
`C=C1[C@@](C)([C@@H]2CCCS2)[C@H]2C(C)=C[C@]1(C)n1c(=O)n(-c3ccccc3)c(=O)n12`: the GI50 in the assay on A498, in the assay with A549, with ACHN, with HL-60, in the assay on Hs-578T and with KM12 was > 100 µM (inactive) in each case. For the same compound, the GI50 in the assay with Malme-3M, in the assay with NCI-H226, in the assay on NCI-H522, in the assay on OVCAR-3, in the assay with OVCAR-5 and with SF-268 was > 100 µM (inactive) throughout. In addition, the GI50 in the assay on SK-MEL-28, in the assay on SK-MEL-5, with SK-OV-3, in the assay on T47D, with U-251 and with UO-31 was > 100 µM (inactive) each time.
As for `N#CCCN(CCNc1ccccc1)C(=O)Nc1ccc(NC(=O)N(CCC#N)CCNc2ccccc2)cc1`, the GI50 is > 100 µM (inactive) with A498; > 100 µM (inactive) in the assay on A549; > 100 µM (inactive) with ACHN; > 45.9 µM (inactive) in the assay with HOP-92; > 41.9 µM (inactive) with Hs-578T; > 96.6 µM (inactive) with KM12. In addition, the GI50 in the assay with Malme-3M was > 100 µM (inactive); in the assay with NCI-H226, > 73.5 µM (inactive); in the assay with NCI-H522, 21.1 µM (inactive); with OVCAR-3, > 92.9 µM (inactive); in the assay on OVCAR-5, > 100 µM (inactive); with SF-268, > 47.4 µM (inactive). Besides, the GI50 with SK-MEL-28 is > 94.8 µM (inactive); in the assay with SK-MEL-5, > 100 µM (inactive); in the assay on SK-OV-3 it was > 65.6 µM (inactive); with T47D, > 58.1 µM (inactive); in the assay on U-251 it was > 100 µM (inactive); in the assay with UO-31 it was > 100 µM (inactive).
For the compound `CCC(C#N)NCc1cccc(CNC(C#N)CC)c1` (stereo unspecified), the GI50 is > 100 µM (inactive) with A498; > 100 µM (inactive) in the assay with A549; > 100 µM (inactive) with ACHN; > 100 µM (inactive) with HL-60; > 100 µM (inactive) in the assay with HOP-92; 98.9 µM (inactive) in the assay on Hs-578T. Besides, the GI50 was > 100 µM (inactive) in the assay with KM12; > 100 µM (inactive) in the assay on Malme-3M; > 100 µM (inactive) with NCI-H226; > 100 µM (inactive) in the assay with NCI-H522; > 100 µM (inactive) in the assay on OVCAR-3; 20 µM (inactive) with OVCAR-5. For the same compound, the GI50 with SF-268 was > 100 µM (inactive); with SK-MEL-28, > 100 µM (inactive); in the assay with SK-MEL-5, > 100 µM (inactive); in the assay on SK-OV-3, 18.4 µM (inactive); in the assay on T47D, > 100 µM (inactive); with U-251, > 100 µM (inactive). Also, the GI50 in the assay with UO-31 is > 100 µM (inactive).
As to `COC(=O)c1cc(OS(=O)(=O)C(F)(F)F)c(=O)n2c1CCCC2`, the GI50 in the assay on A498, with A549, in the assay with ACHN, with HL-60, with Hs-578T and with KM12 was > 100 µM (inactive) throughout. In addition, the GI50 with Malme-3M was > 100 µM (inactive); with NCI-H226 it was 9.2 µM (inactive); with NCI-H522, > 100 µM (inactive); in the assay on OVCAR-5, > 100 µM (inactive); in the assay on SF-268, > 100 µM (inactive); in the assay with SK-MEL-28, > 100 µM (inactive). The GI50 in the assay with SK-MEL-5, with SK-OV-3, in the assay on T47D, in the assay on U-251 and in the assay on UO-31 was > 100 µM (inactive) throughout.
In the case of `Cc1ccc(/N=N/c2c(O)ccc3cc(S(=O)(=O)O)ccc23)cc1`, the GI50 in the assay on A549 was > 100 µM (inactive); in the assay with ACHN, > 100 µM (inactive); in the assay with HOP-92 it was > 100 µM (inactive); in the assay on Hs-578T it was > 100 µM (inactive); with KM12, 74.6 µM (inactive); in the assay on Malme-3M it was > 100 µM (inactive). Also, the GI50 in the assay with NCI-H226 was > 100 µM (inactive); with NCI-H522, > 100 µM (inactive); in the assay on OVCAR-3, > 100 µM (inactive); in the assay on OVCAR-5, > 100 µM (inactive); with SF-268, 85.5 µM (inactive); in the assay on SK-MEL-28, > 100 µM (inactive). Besides, the GI50 is > 100 µM (inactive) in the assay on SK-MEL-5; > 100 µM (inactive) in the assay on SK-OV-3; 66.8 µM (inactive) in the assay with T47D; > 100 µM (inactive) in the assay with U-251; > 100 µM (inactive) in the assay with UO-31.
